From PubChem BioAssay (NCI)
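Values below derive from 48-hour exposures of cells grown in 96-well plates, with endpoints linearly interpolated between the two concentrations bracketing the appropriate inhibition level. The concentration for full growth arrest is given as TGI.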

Experiments:
Test in all cases: DTP human tumour cell line panel, 48 h
[1] = system: 786-0 renal
[2] = system: A498 renal
[3] = system: A549 NSCLC
[4] = system: ACHN renal
[5] = system: BT-549 breast
[6] = system: CCRF-CEM leukemia
[7] = system: COLO 205 colon
[8] = system: DU-145 prostate
[9] = system: HCC-2998 colon
[10] = system: HCT-116 colon
[11] = system: HCT-15 colon
[12] = system: HL-60(TB) leukemia
[13] = system: HOP-62 NSCLC
[14] = system: HOP-92 NSCLC
[15] = system: HS 578T breast
[16] = system: HT29 colon
[17] = system: IGROV1 ovarian
[18] = system: K-562 leukemia
[19] = system: KM12 colon
[20] = system: LOX IMVI melanoma
[21] = system: M14 melanoma
[22] = system: MALME-3M melanoma
[23] = system: MCF7 breast
[24] = system: MDA-MB-231 breast
[25] = system: MDA-MB-435
[26] = system: MDA-N
[27] = system: MOLT-4 leukemia
[28] = system: NCI-H226 lung
[29] = system: NCI-H23 lung
[30] = system: NCI-H460 lung
[31] = system: NCI-H522 lung
[32] = system: NCI/ADR-RES ovarian
[33] = system: OVCAR-3 ovarian
[34] = system: OVCAR-4 ovarian
[35] = system: OVCAR-5 ovarian
[36] = system: OVCAR-8 ovarian
[37] = system: PC-3 prostate
[38] = system: RPMI-8226 leukemia
[39] = system: RXF 393 renal
[40] = system: SF-268 CNS
[41] = system: SF-295 CNS
[42] = system: SF-539 CNS
[43] = system: SK-MEL-28 melanoma
[44] = system: SK-MEL-5 melanoma
[45] = system: SK-OV-3 ovarian
[46] = system: SN12C renal
[47] = system: SNB-19 CNS
[48] = system: SW-620 colon
[49] = system: T-47D breast
[50] = system: TK-10 renal
[51] = system: U251 CNS
[52] = system: UACC-62 melanoma
[53] = system: UO-31 renal
[54] = system: CAKI-1 renal
[55] = system: EKVX NSCLC
[56] = system: SNB-75 CNS
[57] = system: SR leukemia
[58] = system: UACC-257 melanoma

CSC(=S)CC(O)[C@@H]1CC2c3ccccc3C1c1ccccc12 (stereo not given in full)
TGI [1]: 41.3 µM | TGI [2]: 37.3 µM | TGI [3]: 34.4 µM | TGI [4]: 29.5 µM | TGI [5]: 34.2 µM | TGI [6]: 10.6 µM | TGI [7]: 36.4 µM | TGI [8]: 30.8 µM | TGI [9]: 28.2 µM | TGI [10]: 20.9 µM | TGI [11]: 25.6 µM | TGI [12]: 7.96 µM | TGI [13]: 38.2 µM | TGI [14]: 38.8 µM | TGI [15]: 80.2 µM | TGI [16]: 15 µM | TGI [17]: 33.1 µM | TGI [18]: 30.4 µM | TGI [19]: 25.5 µM | TGI [20]: 54.6 µM | TGI [21]: 27 µM | TGI [22]: 39.1 µM | TGI [23]: 62.1 µM | TGI [24]: 54.3 µM | TGI [25]: 26 µM | TGI [26]: 28.3 µM | TGI [27]: 8.24 µM | TGI [28]: 79.1 µM | TGI [29]: 22.2 µM | TGI [30]: 40.8 µM | TGI [31]: 10.9 µM | TGI [32]: 54.7 µM | TGI [33]: 22.2 µM | TGI [34]: 27.5 µM | TGI [35]: 33.4 µM | TGI [36]: 39.2 µM | TGI [37]: 48.6 µM | TGI [38]: 20.7 µM | TGI [39]: 7.54 µM | TGI [40]: 45.4 µM | TGI [41]: 34.4 µM | TGI [42]: 37.8 µM | TGI [43]: 48.5 µM | TGI [44]: 30.5 µM | TGI [45]: 28.7 µM | TGI [46]: 45.2 µM | TGI [47]: 26.7 µM | TGI [48]: > 100 µM | TGI [49]: 37.7 µM | TGI [50]: 30.7 µM | TGI [51]: 13 µM | TGI [52]: 25.4 µM | TGI [53]: 25.6 µM

COc1cc(CN=c2nc(N(C)C)ss2)cc(OC)c1OC
TGI [1]: > 5.44 µM | TGI [2]: > 10 µM | TGI [3]: > 10 µM | TGI [4]: > 10 µM | TGI [54]: > 10 µM | TGI [6]: 1.56 µM | TGI [7]: > 10 µM | TGI [8]: > 10 µM | TGI [55]: > 10 µM | TGI [9]: > 10 µM | TGI [10]: > 10 µM | TGI [11]: > 10 µM | TGI [12]: 4.47 µM | TGI [13]: > 10 µM | TGI [14]: > 10 µM | TGI [15]: > 10 µM | TGI [16]: > 10 µM | TGI [17]: > 10 µM | TGI [18]: 5.67 µM | TGI [19]: > 10 µM | TGI [20]: 4.4 µM | TGI [21]: > 10 µM | TGI [22]: > 9.27 µM | TGI [23]: > 10 µM | TGI [24]: > 10 µM | TGI [25]: > 10 µM | TGI [26]: > 10 µM | TGI [27]: 7.18 µM | TGI [28]: > 10 µM | TGI [29]: > 10 µM | TGI [30]: > 10 µM | TGI [31]: > 10 µM | TGI [32]: > 10 µM | TGI [33]: > 10 µM | TGI [34]: > 10 µM | TGI [35]: > 10 µM | TGI [36]: > 8.92 µM | TGI [37]: > 10 µM | TGI [38]: > 7.37 µM | TGI [39]: > 10 µM | TGI [40]: > 10 µM | TGI [41]: > 10 µM | TGI [42]: > 10 µM | TGI [43]: > 10 µM | TGI [44]: > 10 µM | TGI [45]: > 10 µM | TGI [46]: > 10 µM | TGI [47]: > 10 µM | TGI [56]: > 10 µM | TGI [57]: 3.38 µM | TGI [48]: > 10 µM | TGI [49]: > 10 µM | TGI [50]: > 10 µM | TGI [51]: > 10 µM | TGI [58]: > 10 µM | TGI [52]: > 10 µM | TGI [53]: > 10 µM
